Reference: patent publication US12129254B1, “Pyrimido[6′,1′:2,3]imidazo[4,5-b][1,6]naphthyridine compounds as CK2 inhibitors” (KING FAISAL UNIVERSITY, priority 2023, dated 2024)

What was measured:
[1] = biological target: T1, recombinant human CK2 (RRββ-holoenzyme) (Homo sapiens, UniProt P68400); assay: CK2 Kinase Assay (radiometric, [γ-33P] ATP); format: biochemical; conditions: final ATP concentration 15 μM, 10 min at 30° C., eight concentrations; read-out: protein kinase CK2 IC50
T1 construct: purchased Millipore
Experimental: CK2 Kinase Assay was conducted using the protocol as described in Pierre F. et al; J. Med. Chem. 2011, 54, 635-654. The tested compounds in aqueous solution were added at a volume of 10 μL to a reaction mixture comprising 10 μL of assay dilution buffer (ADB; 20 mM MOPS, pH 7.2, 25 mM β-glycerol phosphate, 5 mM EGTA, 1 mM sodium orthovanadate, and 1 mM dithiothreitol), 10 μL of substrate peptide (RRRDDDSDDD, dissolved in ADB at a concentration of 1 mM), 10 μL of recombinant human CK2 (RRββ-holoenzyme, 25 ng dissolved in ADB; Millipore). Reactions were initiated by the addition of 10 μL of ATP solution (90% 75 mMMgCl2, 75 μM ATP (final ATP concentration: 15 μM) dissolved in ADB; 10% [γ-33P] ATP (stock 1 mCi/100 μL; 3000 Ci/mmol (Perkin-Elmer) and maintained for 10 min at 30° C. The reactions were quenched with 100 μL of 0.75% phosphoric acid and then transferred to and filtered through a phosphor cellulose filter plate (Millipore). After washing each well five times with 0.75% phosphoric acid, the plate was dried under vacuum for 5 min and, following the addition of 15 μL of scintillation fluid to each well, the residual radioactivity was measured using a Wallac luminescence counter. The IC50 values were derived from eight concentrations of test inhibitors.

A375 (melanoma) = assay: In vitro cytotoxic activity (MTT) assay, A375; format: cell-based; conditions: Homo sapiens, A-375; A375 (melanoma) cells, exposed for 96 hours; read-out: IC50, concentration of compound eliciting a 50% inhibition of cell proliferation
Experimental: (§1) Compounds 1-16 were screened for their in vitro cytotoxic activity utilizing a 3-(4,5-dimethyl-thiazol-2-yl)-2,5-diphenyltetrazolium bromide (MTT) assay against selected cancer human cell lines consisting of PC3 (prostate), HCT116 (colon), A375 (melanoma), H1299 (lung), MIAPaCa-2 (pancreas), HL60 (leukemia), MCF7 (breast), MDA-MB-231 (breast) (T. Mosmann, J. Immunol. Meth., 1983, 65, 55-63). The cells were cultured at 37° C. in RMPI1640 medium supplemented with 10% fetal bovine serum, 50 IU/mL penicillin, and 50 μg/mL streptomycin in a 5% CO2 incubator. All cells were sub-cultured 3 times/week by trypsinisation. Viable cells were seeded and allowed to adhere for 12 h before a test drug was added in 96-well plates at an initial density of 1.0×10^5 cells/mL. Tumour cell lines were separately exposed to various concentrations of the tested compounds followed by incubation at a temperature of 37° C. during 96 h inside a medium of fresh RMPI 1640. Cells were subsequently incubated at 37° C. using MTT at 0.5 mg/mL during 4 h. After removal of supernatant, formazan crystals were dissolved in isopropanol and the optical density was measured at 570 nm. CX-4945 was used as a positive control.

MIAPaCa-2 (pancreas) = assay: In vitro cytotoxic activity (MTT) assay, MIAPaCa-2; format: cell-based; conditions: Homo sapiens, MIA PaCa-2; MIAPaCa-2 (pancreas) cells, exposed for 96 hours; read-out: IC50, concentration of compound eliciting a 50% inhibition of cell proliferation
Experimental: as §1

PC3 (prostate) = assay: In vitro cytotoxic activity (MTT) assay, PC3; format: cell-based; conditions: Homo sapiens, Prostate cell; PC3 (prostate) cells, exposed for 96 hours; read-out: IC50, concentration of compound eliciting a 50% inhibition of cell proliferation
Experimental: as §1

HCT116 (colon) = assay: In vitro cytotoxic activity (MTT) assay, HCT116; format: cell-based; conditions: Homo sapiens, HCT-116; HCT116 (colon) cells, exposed for 96 hours; read-out: IC50, concentration of compound eliciting a 50% inhibition of cell proliferation
Experimental: as §1

HL60 (leukemia) = assay: In vitro cytotoxic activity (MTT) assay, HL60; format: cell-based; conditions: Homo sapiens, HL-60; HL60 (leukemia) cells, exposed for 96 hours; read-out: IC50, concentration of compound eliciting a 50% inhibition of cell proliferation
Experimental: as §1

MCF7 (breast) = assay: In vitro cytotoxic activity (MTT) assay, MCF7; format: cell-based; conditions: Homo sapiens; MCF7 (breast) cells, exposed for 96 hours; read-out: IC50, concentration of compound eliciting a 50% inhibition of cell proliferation
Experimental: as §1

MDA-MB-231 (breast) = assay: In vitro cytotoxic activity (MTT) assay, MDA-MB-231; format: cell-based; conditions: Homo sapiens; MDA-MB-231 (breast) cells, exposed for 96 hours; read-out: IC50, concentration of compound eliciting a 50% inhibition of cell proliferation
Experimental: as §1

H1299 (lung) = assay: In vitro cytotoxic activity (MTT) assay, H1299; format: cell-based; conditions: Homo sapiens, NCI-H1299; H1299 (lung) cells, exposed for 96 hours; read-out: IC50, concentration of compound eliciting a 50% inhibition of cell proliferation
Experimental: as §1

T1 sequence (P68400 whole entry): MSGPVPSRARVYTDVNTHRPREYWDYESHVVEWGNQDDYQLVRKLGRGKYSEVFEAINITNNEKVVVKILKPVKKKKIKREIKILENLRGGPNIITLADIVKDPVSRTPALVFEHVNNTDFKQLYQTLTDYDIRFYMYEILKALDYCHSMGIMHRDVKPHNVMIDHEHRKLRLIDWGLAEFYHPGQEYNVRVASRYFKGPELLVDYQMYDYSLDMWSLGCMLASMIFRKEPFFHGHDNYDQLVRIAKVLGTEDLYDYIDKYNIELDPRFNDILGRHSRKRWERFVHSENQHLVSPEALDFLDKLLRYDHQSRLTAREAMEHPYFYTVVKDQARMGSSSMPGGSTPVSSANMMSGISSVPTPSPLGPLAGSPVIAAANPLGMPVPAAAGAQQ
T1 sequence (P67870 whole entry partner): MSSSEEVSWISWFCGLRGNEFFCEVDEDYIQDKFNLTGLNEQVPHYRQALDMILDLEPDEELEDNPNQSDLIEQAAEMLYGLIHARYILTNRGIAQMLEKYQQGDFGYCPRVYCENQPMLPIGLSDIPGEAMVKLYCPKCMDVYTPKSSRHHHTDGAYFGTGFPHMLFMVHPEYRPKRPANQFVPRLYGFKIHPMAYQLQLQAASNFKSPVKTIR

## Clc1cccc(Nc2c3cnccc3nc3c2nc2ccncn23)c1 [Compound 1, N-(3-chlorophenyl)pyrimido[6′,1′:2,3]imidazo[4,5-b][1,6]naphthyridin-12-amine]
[1]
  IC50: 138 nM
A375 (melanoma)
  IC50: 3000 nM
MIAPaCa-2 (pancreas)
  IC50: 1400 nM
PC3 (prostate)
  IC50: 2200 nM
HCT116 (colon)
  IC50: 1700 nM
HL60 (leukemia)
  IC50: 3100 nM
MCF7 (breast)
  IC50: 5900 nM
MDA-MB-231 (breast)
  IC50: 4700 nM
H1299 (lung)
  IC50: 2500 nM
